Results: patent publication US9694016B2 (Novartis AG, priority 2013, dated 2017)

The compounds below were run against T1, b-Raf (V600E) (Homo sapiens (Human), UniProt P15056, V600E) (assay: not given). Conditions: read-out: b-Raf IC-50; AlphaScreen, 60 min pre-incubation, reaction 3 hours at room temperature.
T1 sequence (P15056 whole entry V600E): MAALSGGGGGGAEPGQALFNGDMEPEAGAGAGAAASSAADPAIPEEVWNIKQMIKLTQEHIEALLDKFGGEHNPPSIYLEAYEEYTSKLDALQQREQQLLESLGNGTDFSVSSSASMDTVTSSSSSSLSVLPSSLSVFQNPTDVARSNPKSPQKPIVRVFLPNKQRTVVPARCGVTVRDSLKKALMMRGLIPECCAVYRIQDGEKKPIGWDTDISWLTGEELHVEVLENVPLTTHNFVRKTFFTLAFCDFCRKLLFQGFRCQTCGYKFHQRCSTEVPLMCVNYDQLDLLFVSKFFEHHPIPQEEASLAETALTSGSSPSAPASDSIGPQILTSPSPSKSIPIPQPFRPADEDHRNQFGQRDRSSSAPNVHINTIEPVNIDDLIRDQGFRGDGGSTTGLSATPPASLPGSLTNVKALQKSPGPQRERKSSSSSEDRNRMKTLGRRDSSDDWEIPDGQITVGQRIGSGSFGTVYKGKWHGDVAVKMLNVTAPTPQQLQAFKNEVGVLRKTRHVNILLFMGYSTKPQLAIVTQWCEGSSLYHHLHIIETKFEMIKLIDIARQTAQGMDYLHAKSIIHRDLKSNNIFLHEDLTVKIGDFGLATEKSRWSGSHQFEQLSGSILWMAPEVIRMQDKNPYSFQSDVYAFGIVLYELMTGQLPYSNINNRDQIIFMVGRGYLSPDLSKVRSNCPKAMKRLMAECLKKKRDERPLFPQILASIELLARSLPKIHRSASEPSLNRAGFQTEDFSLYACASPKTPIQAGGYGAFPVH

Row | SMILES | IC50
1 | Cc1ncc(NC(=O)c2ccnc(C(F)(F)F)c2)cc1-c1cc(NCCO)nc(N2CCOC[C@H]2C)c1 [Example 1140, (R)—N-(2′-((2-hydroxyethyl)amino)-2-methyl-6′-(3-methylmorpholino)-[3,4′-bipyridin]-5-yl)-2-(trifluoromethyl)isonicotinamide] | 13.4 nM
2 | Cc1ncc(NC(=O)c2ccnc(C(F)F)c2)cc1-c1cc(NCCO)nc(N2CCOC[C@H]2C)c1 [Example 1141, (R)-2-(difluoromethyl)-N-(2′-((2-hydroxyethyl)amino)-2-methyl-6′-(3-methylmorpholino)-[3,4′-bipyridin]-5-yl)isonicotinamide] | 15.7 nM
3 | Cc1ccc(NC(=O)c2ccnc(C(C)(C)F)c2)cc1-c1cc(C2COCCO2)nc(N2CCOCC2)c1 (stereo not shown) [Example 1144, N-(3-(2-(1,4-dioxan-2-yl)-6-morpholinopyridin-4-yl)-4-methylphenyl)-2-(2-fluoropropan-2-yl)isonicotinamide] | 1.56 nM
4 | Cc1ccc(NC(=O)c2ccnc(C(C)(F)F)c2)cc1-c1cc(C2COCCO2)nc(N2CCOCC2)c1 (stereo not shown) [Example 1145] | 1.3 nM
5 | CCOc1cc(-c2cc(NC(=O)c3ccnc(C(C)(C)C#N)c3)cnc2C)cc(N2CCOCC2)n1 [Example 1147, 2-(2-cyanopropan-2-yl)-N-(2′-ethoxy-2-methyl-6′-morpholino-[3,4′-bipyridin]-5-yl)isonicotinamide] | 8.31 nM
6 | CCOc1cc(-c2cc(NC(=O)c3ccnc(C(C)(C)O)c3)cnc2C)cc(N2CCOCC2)n1 [Example 1148, N-(2′-ethoxy-2-methyl-6′-morpholino-[3,4′-bipyridin]-5-yl)-2-(2-hydroxypropan-2-yl)isonicotinamide] | 11.9 nM
7 | Cc1ccc(NC(=O)c2cnnc(C(C)(C)C#N)c2)cc1-c1cc(OC2CCOCC2)nc(N2CCOCC2)c1 [Example 1153, 6-(2-cyanopropan-2-yl)-N-(4-methyl-3-(2-morpholino-6-((tetrahydro-2H-pyran-4-yl)oxy)pyridin-4-yl)phenyl)pyridazine-4-carboxamide] | 2.15 nM
8 | Cc1ccc(NC(=O)c2cnnc(C3CC3)c2)cc1-c1cc(OC2CCOCC2)nc(N2CCOCC2)c1 [Example 1154, 6-cyclopropyl-N-(4-methyl-3-(2-morpholino-6-((tetrahydro-2H-pyran-4-yl)oxy)pyridin-4-yl)phenyl)pyridazine-4-carboxamide] | 0.6 nM
9 | Cc1ccc(NC(=O)c2ccnc(C(F)(F)F)c2)cc1-c1cc(OCCO)nc(N2CCOCC2)c1 [Example 1156, N-(3-(2-(2-hydroxyethoxy)-6-morpholinopyridin-4-yl)-4-methylphenyl)-2-(trifluoromethyl)isonicotinamide] | 0.73 nM
10 | Cc1ccc(NC(=O)c2ccnc(C3CC3)c2)cc1-c1cc(OCCO)nc(N2CCOCC2)c1 [Example 1157, 2-cyclopropyl-N-(3-(2-(2-hydroxyethoxy)-6-morpholinopyridin-4-yl)-4-methylphenyl)isonicotinamide] | 0.43 nM
11 | Cc1ccc(NC(=O)c2ccnc(C(C)(C)F)c2)cc1-c1cc(OCCO)nc(N2CCOCC2)c1 [Example 1158, 2-(2-fluoropropan-2-yl)-N-(3-(2-(2-hydroxyethoxy)-6-morpholinopyridin-4-yl)-4-methylphenyl)isonicotinamide] | 1.63 nM
12 | Cc1ccc(NC(=O)c2ccnc(C(C)(F)F)c2)cc1-c1cc(OCCO)nc(N2CCOCC2)c1 [Example 1159, 2-(1,1-difluoroethyl)-N-(3-(2-(2-hydroxyethoxy)-6-morpholinopyridin-4-yl)-4-methylphenyl)isonicotinamide] | 0.75 nM
13 | Cc1ccc(NC(=O)c2cnnc(C3CC3)c2)cc1-c1cc(OCCO)nc(N2CCOCC2)c1 [Example 1162, 6-cyclopropyl-N-(3-(2-(2-hydroxyethoxy)-6-morpholinopyridin-4-yl)-4-methylphenyl)pyridazine-4-carboxamide] | 0.38 nM
14 | Cc1ccc(NC(=O)c2cnnc(C(F)(F)F)c2)cc1-c1cc(OCCO)nc(N2CCOCC2)c1 [Example 1164, N-(3-(2-(2-hydroxyethoxy)-6-morpholinopyridin-4-yl)-4-methylphenyl)-6-(trifluoromethyl)pyridazine-4-carboxamide] | 0.57 nM
15 | Cc1ncc(NC(=O)c2ccnc(C(C)(F)F)c2)cc1-c1cc(C2COCCO2)nc(N2CCOCC2)c1 (stereo not shown) [Example 1166, N-(2′-(1,4-dioxan-2-yl)-2-methyl-6′-morpholino-[3,4′-bipyridin]-5-yl)-2-(1,1-difluoroethyl)isonicotinamide] | 3.28 nM
16 | Cc1ncc(NC(=O)c2ccnc(C(C)(C)F)c2)cc1-c1cc(C2COCCO2)nc(N2CCOCC2)c1 (stereo not shown) [Example 1167, N-(2′-(1,4-dioxan-2-yl)-2-methyl-6′-morpholino-[3,4′-bipyridin]-5-yl)-2-(2-fluoropropan-2-yl)isonicotinamide] | 7.62 nM
17 | CCC(F)(F)c1cc(C(=O)Nc2cnc(C)c(-c3cc(C4COCCO4)nc(N4CCOCC4)c3)c2)ccn1 (stereo not shown) [Example 1168, N-(2′-(1,4-dioxan-2-yl)-2-methyl-6′-morpholino-[3,4′-bipyridin]-5-yl)-2-(1,1-difluoropropyl)isonicotinamide] | 4.56 nM
18 | Cc1ncc(NC(=O)c2ccnc(C3CC3)c2)cc1-c1cc(C2COCCO2)nc(N2CCOCC2)c1 (stereo not shown) [Example 1169, N-(2′-(1,4-dioxan-2-yl)-2-methyl-6′-morpholino-[3,4′-bipyridin]-5-yl)-2-cyclopropylisonicotinamide] | 3.01 nM
19 | O=C(Nc1c[nH]c(=O)c(-c2ccnc(N3CCOCC3)c2)c1)c1cccc(C(F)F)c1 [Example 1174, 3-(difluoromethyl)-N-(2′-morpholino-2-oxo-1,2-dihydro-[3,4′-bipyridin]-5-yl)benzamide] | 25000 nM

Next, values leading:

Row | IC50 | SMILES
20 | 3.18 nM | CCOc1cc(-c2cc(NC(=O)c3ccnc(C(C)(C)F)c3)cnc2C)cc(N2CCOCC2)n1 [Example 1142, N-(2′-ethoxy-2-methyl-6′-morpholino-[3,4′-bipyridin]-5-yl)-2-(2-fluoropropan-2-yl)isonicotinamide]
21 | 1.81 nM | CCOc1cc(-c2cc(NC(=O)c3ccnc(C(C)(F)F)c3)cnc2C)cc(N2CCOCC2)n1 [Example 1143, 2-(1,1-difluoroethyl)-N-(2′-ethoxy-2-methyl-6′-morpholino-[3,4′-bipyridin]-5-yl)isonicotinamide]
22 | 1.87 nM | CCOc1cc(-c2cc(NC(=O)c3ccnc(C(F)F)c3)cnc2C)cc(N2CCOCC2)n1 [Example 1146, 2-(difluoromethyl)-N-(2′-ethoxy-2-methyl-6′-morpholino-[3,4′-bipyridin]-5-yl)isonicotinamide]
23 | 3.13 nM | CCOc1cc(-c2cc(NC(=O)c3ccnc(C4CC4)c3)cnc2C)cc(N2CCOCC2)n1 [Example 1149, 2-cyclopropyl-N-(2′-ethoxy-2-methyl-6′-morpholino-[3,4′-bipyridin]-5-yl)isonicotinamide]
24 | 1.6 nM | Cc1ccc(NC(=O)c2ccnc(C(C)(C)O)c2)cc1-c1cc(OC2CCOCC2)nc(N2CCOCC2)c1 [Example 1150, 2-(2-hydroxypropan-2-yl)-N-(4-methyl-3-(2-morpholino-6-((tetrahydro-2H-pyran-4-yl)oxy)pyridin-4-yl)phenyl)isonicotinamide]
25 | 0.6 nM | Cc1ccc(NC(=O)c2ccnc(C(F)F)c2)cc1-c1cc(OC2CCOCC2)nc(N2CCOCC2)c1 [Example 1151, 2-(difluoromethyl)-N-(4-methyl-3-(2-morpholino-6-((tetrahydro-2H-pyran-4-yl)oxy)pyridin-4-yl)phenyl)isonicotinamide]
26 | 1.25 nM | Cc1ccc(NC(=O)c2ccnc(C(C)(C)C#N)c2)cc1-c1cc(OC2CCOCC2)nc(N2CCOCC2)c1 [Example 1152, 2-(2-cyanopropan-2-yl)-N-(4-methyl-3-(2-morpholino-6-((tetrahydro-2H-pyran-4-yl)oxy)pyridin-4-yl)phenyl)isonicotinamide]
27 | 0.66 nM | Cc1ccc(NC(=O)c2cnnc(C(F)(F)F)c2)cc1-c1cc(OC2CCOCC2)nc(N2CCOCC2)c1 [Example 1155, N-(4-methyl-3-(2-morpholino-6-((tetrahydro-2H-pyran-4-yl)oxy)pyridin-4-yl)phenyl)-6-(trifluoromethyl)pyridazine-4-carboxamide]
28 | 0.55 nM | Cc1ccc(NC(=O)c2ccnc(C(F)F)c2)cc1-c1cc(OCCO)nc(N2CCOCC2)c1 [Example 1160, 2-(difluoromethyl)-N-(3-(2-(2-hydroxyethoxy)-6-morpholinopyridin-4-yl)-4-methylphenyl)isonicotinamide]
29 | 1.5 nM | Cc1ccc(NC(=O)c2ccnc(C(C)(C)C#N)c2)cc1-c1cc(OCCO)nc(N2CCOCC2)c1 [Example 1161, 2-(2-cyanopropan-2-yl)-N-(3-(2-(2-hydroxyethoxy)-6-morpholinopyridin-4-yl)-4-methylphenyl)isonicotinamide]
30 | 1.12 nM | Cc1ccc(NC(=O)c2cc(C(F)(F)F)ccn2)cc1-c1cc(OCCO)nc(N2CCOCC2)c1 [Example 1163, N-(3-(2-(2-hydroxyethoxy)-6-morpholinopyridin-4-yl)-4-methylphenyl)-4-(trifluoromethyl)picolinamide]
31 | 2.82 nM | Cc1ncc(NC(=O)c2ccnc(C(F)(F)F)c2)cc1-c1cc(C2COCCO2)nc(N2CCOCC2)c1 (stereo not shown) [Example 1165, N-(2′-(1,4-dioxan-2-yl)-2-methyl-6′-morpholino-[3,4′-bipyridin]-5-yl)-2-(trifluoromethyl)isonicotinamide]
32 | 25000 nM | CC(F)(F)c1cc(C(=O)Nc2c[nH]c(=O)c(-c3ccnc(N4CCOCC4)c3)c2)ccn1 [Example 1171, 2-(1,1-difluoroethyl)-N-(2′-morpholino-2-oxo-1,2-dihydro-[3,4′-bipyridin]-5-yl)isonicotinamide]
33 | 80 nM | Cc1cc(=O)c(C(=O)Nc2cccc(C(F)(F)F)c2)cn1-c1ccnc(N2CCOCC2)c1 [Example 1175, 6-methyl-2′-morpholino-4-oxo-N-(3-(trifluoromethyl)phenyl)-4H-[1,4′-bipyridine]-3-carboxamide]

Each compound was assayed against T1, b-Raf (V600E) (assay: biochemical). Conditions: not given.

Row | SMILES | IC50
34 | CCOc1ncc(-c2cc(C(=O)Nc3cccc(C(C)(C)O)c3)ccc2C)cc1N1CCOCC1 [Example 236, 3-(6-ethoxy-5-morpholinopyridin-3-yl)-N-(3-(2-hydroxypropan-2-yl)phenyl)-4-methylbenzamide] | 1.6 nM
